Tested on: African-American individuals with SCN5A variant S1103Y
Conditions: carriers of SCN5A S1103Y variant; three individuals after amiodarone treatment, one after infusion of brevital; QT prolongation exacerbated in these cases
Source text: To determine the genetic basis for these arrhythmias, individuals with drug-induced torsade de pointes and ventricular fibrillation were screened for mutations in known arrhythmia genes.

`C=CCC1(C(C)C#CCC)C(=O)N=C([O-])N(C)C1=O.[Na+]` (stereo not shown) [brevital] was tested, and the “arrhythmia after drug treatment” value was “experienced arrhythmia”.

Source: patent US7208273B2, “Common polymorphism in scn5a implicated in drug-induced cardiac arrhythmia” (University of Utah Research Foundation, priority 2000, dated 2007)
